# From patent US9079866B2, “Flap modulators” (JANSSEN PHARMACEUTICA NV, priority 2013, dated 2015)
# Where a name gives a salt, the structure may show the parent alone.
# System: leukotriene pathway in human whole blood (LTB4 levels)
# Experiment: Human whole blood assay (A23187-stimulated LTB4)
# Type: cell-based
# Conditions: Homo sapiens, human whole blood diluted 1:1, A23187-stimulated; read-out: LTB4 IC50 1:1
# Method: The ability of the compounds of the present invention to treat a FLAP-mediated disease and/or disorder, or associated symptoms or complications thereof, was determined using the following procedures. Binding assay data represent the average value obtained from two different assay plates, with samples run in duplicate on each plate. Human whole blood assay data represent a single replicate on an assay plate using whole blood from at least one healthy donor.
# An in vitro cellular assay was performed using human whole blood collected in heparin-containing tubes, which was used to test the ability of compounds to modulate the leukotriene pathway in human whole blood. The blood was diluted 1:1 in RPMI medium, pre-incubated for 15 min at 37° Celsius with test compounds at various concentrations, and then stimulated with calcium ionophore, A23187 (7 μg/mL), for 30 min at 37° Celsius. The samples were then centrifuged and plasma was removed. The plasma was diluted in assay buffer and LTB4 levels were measured using a commercial kit (Enzo Life Sciences). The concentration of each compound that was required for half-maximal inhibition (modulation) of recombinant enzyme activity (IC50) was calculated by a 4-parameter equation using the program GraphPad Prism (GraphPad software).
row,IC50,Compound
1,729 nM,"Fc1cc(-c2cccnc2OCC2CC2)ccc1-c1cnc2[nH]ccc2n1 [Example 400, 2-{4-[2-(Cyclopropylmethoxy)pyridin-3-yl]-2-fluorophenyl}-5H-pyrrolo[2,3-b]pyrazine]"
2,389 nM,"Nc1cnc(-c2ccc(-c3cccnc3OC3CCCCC3)cc2F)cn1 [Example 403, 5-{4-[2-(Cyclohexyloxy)pyridin-3-yl]-2-fluorophenyl}pyrazin-2-amine]"
3,448 nM,"N#Cc1nc(-c2ccc(-c3ccccc3S(=O)(=O)NCCO)cc2F)cnc1N [Example 413, 4′-(5-Amino-6-cyanopyrazin-2-yl)-3′-fluoro-N-(2-hydroxyethyl)biphenyl-2-sulfonamide]"
4,120 nM,"N#Cc1nc(-c2ccc(-c3ccccc3S(=O)(=O)N3CCNC(=O)C3)cc2F)cnc1N [Example 414, 3-Amino-6-{3-fluoro-2′-[(3-oxopiperazin-1-yl)sulfonyl]biphenyl-4-yl}pyrazine-2-carbonitrile]"
5,> 10000 nM,"CC(C)(C)NS(=O)(=O)c1ccccc1-c1ccc(-c2ccc3[nH]ccc3c2)c(F)c1 [Example 421, N-tert-Butyl-3′-fluoro-4′-(1H-indol-5-yl)biphenyl-2-sulfonamide]"
6,59 nM,"CC(C)(C)NS(=O)(=O)c1ccccc1-c1ccc(-c2cnc(N)c(F)c2)c(F)c1 [Example 430, 4′-(6-Amino-5-fluoropyridin-3-yl)-N-tert-butyl-3′-fluorobiphenyl-2-sulfonamide]"
7,1370 nM,"Cc1nc(-c2ccc(-c3ccccc3S(N)(=O)=O)cc2F)cnc1N [Example 446, 4′-(5-Amino-6-methylpyrazin-2-yl)-3′-fluorobiphenyl-2-sulfonamide]"
8,53 nM,"CC(C)(C)NS(=O)(=O)c1ccccc1-c1ccc(-c2cc(N)c3[nH]ccc3c2)c(F)c1 [Example 458, 4′-(7-Amino-1H-indol-5-yl)-N-tert-butyl-3′-fluorobiphenyl-2-sulfonamide]"

# Same assay, conditions: Homo sapiens, human whole blood diluted 1:1 in RPMI, A23187-stimulated LTB4; read-out: LTB4 IC50 1:1
row,Compound,IC50
1,"Nc1cnc(-c2ccc(-c3ccccc3S(=O)(=O)NC3(CO)CCCC3)cc2F)cn1 [Example 179, 4′-(5-Aminopyrazin-2-yl)-3′-fluoro-N-[1-(hydroxymethyl)cyclopentyl]biphenyl-2-sulfonamide]",2 nM
2,"Nc1cnc(-c2ccc(-c3ccccc3NS(=O)(=O)N3CCCC3)cc2F)cn1 [Example 181, N-[4′-(5-Aminopyrazin-2-yl)-3′-fluorobiphenyl-2-yl]pyrrolidine-1-sulfonamide]",240 nM
3,"CNS(=O)(=O)c1cc(C(F)(F)F)ccc1-c1ccc(-c2cnc(N)cn2)c(F)c1 [Example 208, 4′-(5-Aminopyrazin-2-yl)-3′-fluoro-N-methyl-4-(trifluoromethyl)biphenyl-2-sulfonamide]",14 nM
4,"Nc1cnc(-c2ccc(-c3ccc(C(F)(F)F)cc3S(=O)(=O)NCCO)cc2F)cn1 [Example 210, 4′-(5-Aminopyrazin-2-yl)-3′-fluoro-N-(2-hydroxyethyl)-4-(trifluoromethyl)biphenyl-2-sulfonamide]",20 nM
5,"CC(C)(C)OC(=O)N1CC(O)(CNS(=O)(=O)c2ccccc2-c2ccc(-c3ccc(N)nc3)c(F)c2)C1 [Example 357, tert-Butyl 3-((4′-(6-aminopyridin-3-yl)-3′-fluoro-[1,1′-biphenyl]-2-ylsulfonamido)methyl)-3-hydroxyazetidine-1-carboxylate]",1130 nM
6,"NS(=O)(=O)c1ccccc1-c1ccc(-c2cnc3[nH]ccc3c2)c(F)c1 [Example 368, 3′-Fluoro-4′-(1H-pyrrolo[2,3-b]pyridin-5-yl)biphenyl-2-sulfonamide]",178 nM
7,"O=S1(=O)CCN(S(=O)(=O)c2ccccc2-c2ccc(-c3cnc4[nH]ccc4n3)c(F)c2)CC1 [Example 382, 2-{2′-[(1,1-Dioxidothiomorpholin-4-yl)sulfonyl]-3-fluorobiphenyl-4-yl}-5H-pyrrolo[2,3-b]pyrazine]",11 nM
8,"CSc1ccc(F)cc1-c1ccc(-c2cnc3[nH]ccc3n2)c(F)c1 [Example 383, 2-[3,5′-Difluoro-2′-(methylsulfanyl)biphenyl-4-yl]-5H-pyrrolo[2,3-b]pyrazine]",1630 nM
9,"CCSc1ccccc1-c1ccc(-c2cnc3[nH]ccc3n2)c(F)c1 [Example 384, 2-[2′-(Ethylsulfanyl)-3-fluorobiphenyl-4-yl]-5H-pyrrolo[2,3-b]pyrazine]",82 nM
10,"C[C@H](CO)NS(=O)(=O)c1ccccc1-c1ccc(-c2cnc3c(c2)OCCN3)c(F)c1 [Example 390, 4′-(3,4-Dihydro-2H-pyrido[3,2-b][1,4]oxazin-7-yl)-3′-fluoro-N-[(1R)-2-hydroxy-1-methylethyl]biphenyl-2-sulfonamide]",10 nM

# Further lines, results first:
row,IC50,Compound
1,10 nM,"Nc1cnc(-c2ccc(-c3ccccc3S(=O)(=O)N3CCN(c4cnccn4)CC3)cc2F)cn1 [Example 176, 5-{3-Fluoro-2′-[(4-pyrazin-2-ylpiperazin-1-yl)sulfonyl]biphenyl-4-yl}pyrazin-2-amine]"
2,302 nM,"Nc1cnc(-c2ccc(-c3ccccc3S(=O)(=O)N3CCN(c4ncccn4)CC3)cc2F)cn1 [Example 177, 5-{3-Fluoro-2′-[(4-pyrimidin-2-ylpiperazin-1-yl)sulfonyl]biphenyl-4-yl}pyrazin-2-amine]"
3,21 nM,"Nc1cnc(-c2ccc(-c3ccccc3S(=O)(=O)N3CC[C@H](O)C3)cc2F)cn1 [Example 184, (3S)-1-{[4′-(5-Aminopyrazin-2-yl)-3′-fluorobiphenyl-2-yl]sulfonyl}pyrrolidin-3-ol trifluoroacetic acid salt]"
4,76 nM,"CC(CO)(CO)NS(=O)(=O)c1ccccc1-c1ccc(-c2cnc(N)nc2)c(F)c1 [Example 255, 4′-(2-Aminopyrimidin-5-yl)-3′-fluoro-N-[2-hydroxy-1-(hydroxymethyl)-1-methylethyl]biphenyl-2-sulfonamide]"
5,44 nM,"Nc1ncc(-c2ccc(-c3ccccc3S(=O)(=O)N3CCN(C4CC4)CC3)cc2F)cn1 [Example 281, 5-{2′-[(4-Cyclopropylpiperazin-1-yl)sulfonyl]-3-fluorobiphenyl-4-yl}pyrimidin-2-amine trifluoroacetic acid salt]"
6,1170 nM,"Nc1ncc(-c2ccc(-c3ccccc3S(=O)(=O)N3CCCC3)cc2F)cn1 [Example 298, 5-[3-Fluoro-2′-(pyrrolidin-1-ylsulfonyl)biphenyl-4-yl]pyrimidin-2-amine trifluoroacetic acid salt]"
7,178 nM,"N#CC1CN(S(=O)(=O)c2ccccc2-c2ccc(-c3cnc(N)nc3)c(F)c2)C1 [Example 314, 1-((4′-(2-Aminopyrimidin-5-yl)-3′-fluoro-[1,1′-biphenyl]-2-yl)sulfonyl)azetidine-3-carbonitrile]"
8,8490 nM,"Nc1ncc(-c2ccc(-c3ccccc3S(=O)(=O)Cc3nc(C4CC4)no3)cc2F)cn1 [Example 321, 5-(2′-{[(3-Cyclopropyl-1,2,4-oxadiazol-5-yl)methyl]sulfonyl}-3-fluorobiphenyl-4-yl)pyrimidin-2-amine]"
9,137 nM,"NC1CCN(S(=O)(=O)c2ccccc2-c2ccc(-c3cnc4c(c3)OCCN4)c(F)c2)CC1 [Example 389, 1-{[4′-(3,4-Dihydro-2H-pyrido[3,2-b][1,4]oxazin-7-yl)-3′-fluorobiphenyl-2-yl]sulfonyl}piperidin-4-amine]"

# Same assay, conditions: Homo sapiens, read-out: LTB4 IC50 1:1
row,Compound,IC50
1,"C[Si](C)(C)CCOCS(=O)(=O)c1ccccc1-c1ccc(-c2cnc(N)nc2)c(F)c1 [Example 338, 5-[3-Fluoro-2′-({[2-(trimethylsilyl)ethoxy]methyl}sulfonyl)biphenyl-4-yl]pyrimidin-2-amine formate salt]",1090 nM
